According to patent US20260022142A1, “MACROCYCLIC IMMUNOMODULATORS” (Bristol-Myers Squibb Company, priority 2022, published 2026):
Bridge positions count the residues as written; N and C are the ends. Square brackets hold non-standard residues; d marks the D form. Peptide text beside a SMILES is read from it. * marks the point of attachment. Bip = N[C@@H](Cc1ccc(-c2ccccc2)cc1)C(=O)O; Phe(3-Me) = Cc1cccc(C[C@H](N)C(=O)O)c1; 3Pal = N[C@@H](Cc1cccnc1)C(=O)O; 4Pal = N[C@@H](Cc1ccncc1)C(=O)O; Cha = N[C@@H](CC1CCCCC1)C(=O)O; Cit = NC(=O)NCCC[C@H](N)C(=O)O; Tle = CC(C)(C)[C@H](N)C(=O)O; Carboxymethyl = O=C(O)C*; Orn = NCCC[C@H](N)C(=O)O; Aun = NCCCCCCCCCCC(=O)O; Dab = NCC[C@H](N)C(=O)O; Dap = NC[C@H](N)C(=O)O; Sar = CNCC(=O)O

Biological target: T1, PD-1/PD-L1 interaction (PE-labeled human PD-L1-Ig binding to Jurkat cell line over-expressing human PD-1) (Homo sapiens, UniProt Q15116)
T1 construct: expressed in transfected cells; host or cells: Jurkat
Assay: Jurkat-PD-1 Cell Binding High-Content Screening Assay (CBA)
Type: cell-based
Settings: Jurkat cell line over-expressing human PD-1; PE-labeled PD-L1-Ig 20 nM final; read-out: Jurkat hPD1-PDL1 IC50
Procedure, shortened: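 First, compound is added to PD-1-expressing Jurkat cells in serum-containing DMEM and left 2 h at 37° C. Next, PE-conjugated PD-L1-Ig is introduced at 20 nM final concentration for 1 hour. Finally, cells are fixed in 4% paraformaldehyde with Hoechst 33342, washed and imaged.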

T1 sequence (Q15116 25-288): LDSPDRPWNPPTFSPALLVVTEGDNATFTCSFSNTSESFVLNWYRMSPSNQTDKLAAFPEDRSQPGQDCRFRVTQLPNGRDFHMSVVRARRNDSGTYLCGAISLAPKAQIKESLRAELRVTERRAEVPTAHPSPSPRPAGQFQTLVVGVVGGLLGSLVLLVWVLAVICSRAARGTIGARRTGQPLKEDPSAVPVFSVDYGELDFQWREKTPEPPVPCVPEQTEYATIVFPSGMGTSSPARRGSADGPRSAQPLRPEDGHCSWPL

SMILES	IC50 [nM]
Cc1cccc(C[C@@H]2NC(=O)[C@H](CC(=O)O)NC(=O)[C@H](Cc3ccc(OCC(=O)O)cc3)NC(=O)[C@H](CCC(N)=O)NC(=O)CSC[C@@H](C(=O)N[C@@H](CCN)C(=O)NCCCCCCCCCCC(=O)O)NC(=O)[C@H]([C@@H](C)O)NC(=O)[C@H](C(C)C)NC(=O)[C@H](CC3CCCCC3)NC(=O)[C@H](CCN)NC(=O)[C@@H](CC(C)C)NC(=O)[C@H](CCCN)NC(=O)[C@H](CCCNC(N)=O)NC(=O)[C@H](Cc3ccc(-c4ccccc4)cc3)NC(=O)[C@H](C(C)C)NC2=O)c1 [Compound 2830] ({CH2CO}-QY(Carboxymethyl)D[Phe(3-Me)]V[Bip][Cit][Orn][dL][Dab][Cha]VTC[Dab][Aun]-OH; thioether N-14)	26
Cc1cccc(C[C@@H]2NC(=O)[C@H](CC(=O)O)NC(=O)[C@H](Cc3ccc(OCC(=O)O)cc3)NC(=O)[C@H](Cc3ccncc3)NC(=O)CSC[C@@H](C(=O)N[C@@H](CCN)C(=O)NCCCCCCCCCCC(=O)O)NC(=O)[C@H]([C@@H](C)O)NC(=O)[C@H](C(C)C)NC(=O)[C@H](CC3CCCCC3)NC(=O)[C@H](CCN)NC(=O)[C@@H](CC(C)C)NC(=O)[C@H](CCCN)NC(=O)[C@H](CCCNC(N)=O)NC(=O)[C@H](Cc3ccc(-c4ccccc4)cc3)NC(=O)[C@H](C(C)C)NC2=O)c1 [Compound 2831] ({CH2CO}-[4Pal]Y(Carboxymethyl)D[Phe(3-Me)]V[Bip][Cit][Orn][dL][Dab][Cha]VTC[Dab][Aun]-OH; thioether N-14)	43.2
Cc1cccc(C[C@@H]2NC(=O)[C@H](CC(=O)O)NC(=O)[C@H](Cc3ccc(OCC(=O)O)cc3)NC(=O)[C@H](Cc3cccnc3)NC(=O)CSC[C@@H](C(=O)N[C@@H](CCN)C(=O)NCCCCCCCCCCC(=O)O)NC(=O)[C@H]([C@@H](C)O)NC(=O)[C@H](C(C)C)NC(=O)[C@H](CC3CCCCC3)NC(=O)[C@H](CCN)NC(=O)[C@@H](CC(C)C)NC(=O)[C@H](CCCN)NC(=O)[C@H](CCCNC(N)=O)NC(=O)[C@H](Cc3ccc(-c4ccccc4)cc3)NC(=O)[C@H](C(C)C)NC2=O)c1 [Compound 2832] ({CH2CO}-[3Pal]Y(Carboxymethyl)D[Phe(3-Me)]V[Bip][Cit][Orn][dL][Dab][Cha]VTC[Dab][Aun]-OH; thioether N-14)	48
Cc1cccc(C[C@@H]2NC(=O)[C@H](CC(=O)O)NC(=O)[C@H](Cc3ccc(OCC(=O)O)cc3)NC(=O)[C@H](CCCNC(=N)N)NC(=O)CSC[C@@H](C(=O)N[C@@H](CCN)C(=O)NCCCCCCCCCCC(=O)O)NC(=O)[C@H]([C@@H](C)O)NC(=O)[C@H](C(C)C)NC(=O)[C@H](CC3CCCCC3)NC(=O)[C@H](CCN)NC(=O)[C@@H](CC(C)C)NC(=O)[C@H](CCCN)NC(=O)[C@H](CCCNC(N)=O)NC(=O)[C@H](Cc3ccc(-c4ccccc4)cc3)NC(=O)[C@H](Cc3ccc(O)cc3)NC2=O)c1 [Compound 2833] ({CH2CO}-RY(Carboxymethyl)D[Phe(3-Me)]Y[Bip][Cit][Orn][dL][Dab][Cha]VTC[Dab][Aun]-OH; thioether N-14)	5.2
CC(C)C[C@H]1NC(=O)[C@H](CCCN)NC(=O)[C@H](CCCNC(N)=O)NC(=O)[C@H](Cc2ccc(-c3ccccc3)cc2)NC(=O)[C@H](Cc2ccc(O)cc2)NC(=O)[C@H](Cc2c[nH]c3ccccc23)NC(=O)[C@H](CC(=O)O)NC(=O)[C@H](Cc2ccc(OCC(=O)O)cc2)NC(=O)[C@H](CCCNC(=N)N)NC(=O)CSC[C@@H](C(=O)N[C@@H](CCN)C(=O)NCCCCCCCCCCC(=O)O)NC(=O)[C@H]([C@@H](C)O)NC(=O)[C@H](C(C)C)NC(=O)[C@H](CC2CCCCC2)NC(=O)[C@H](CCN)NC1=O [Compound 2834] ({CH2CO}-RY(Carboxymethyl)DWY[Bip][Cit][Orn][dL][Dab][Cha]VTC[Dab][Aun]-OH; thioether N-14)	20.2
Cc1cccc(C[C@@H]2NC(=O)[C@H](CC(=O)O)NC(=O)[C@H](Cc3ccc(OCC(=O)O)cc3)NC(=O)[C@H](CCCNC(=N)N)NC(=O)CSC[C@@H](C(=O)N[C@@H](CCCN)C(=O)NCCCCCCCCCCC(=O)O)NC(=O)[C@H]([C@@H](C)O)NC(=O)[C@H](C(C)C)NC(=O)[C@H](CC3CCCCC3)NC(=O)[C@H](CCN)NC(=O)[C@@H](CC(C)C)NC(=O)[C@H](CCCN)NC(=O)[C@H](CCCNC(N)=O)NC(=O)[C@H](Cc3ccc(-c4ccccc4)cc3)NC(=O)[C@H](Cc3ccc(O)cc3)NC2=O)c1 [Compound 2835] ({CH2CO}-RY(Carboxymethyl)D[Phe(3-Me)]Y[Bip][Cit][Orn][dL][Dab][Cha]VTC[Orn][Aun]-OH; thioether N-14)	18.9
Cc1cccc(C[C@@H]2NC(=O)[C@H](CC(=O)O)NC(=O)[C@H](Cc3ccc(OCC(=O)O)cc3)NC(=O)[C@H](CCCNC(=N)N)NC(=O)CSC[C@@H](C(=O)N[C@@H](CCN)C(=O)NCCCCCCCCCCC(=O)O)NC(=O)[C@H]([C@@H](C)O)NC(=O)[C@H](C(C)C)NC(=O)[C@H](CC3CCCCC3)NC(=O)[C@H](CCN)NC(=O)[C@@H](CC(C)C)NC(=O)[C@H](CCCN)NC(=O)[C@H](CCCNC(N)=O)NC(=O)[C@H](Cc3ccc(-c4ccccc4)cc3)NC(=O)[C@H](Cc3ccc(OCC(=O)O)cc3)NC2=O)c1 [Compound 2836] ({CH2CO}-RY(Carboxymethyl)D[Phe(3-Me)]Y(Carboxymethyl)[Bip][Cit][Orn][dL][Dab][Cha]VTC[Dab][Aun]-OH; thioether N-14)	16.4
Cc1cccc(C[C@@H]2NC(=O)[C@H](CC(=O)O)NC(=O)[C@H](Cc3ccc(OCC(=O)O)cc3)NC(=O)[C@H](CCCNC(=N)N)NC(=O)CSC[C@@H](C(=O)N[C@@H](CCCN)C(=O)NCCCCCCCCCCC(=O)O)NC(=O)[C@H]([C@@H](C)O)NC(=O)[C@H](C(C)C)NC(=O)[C@H](CC3CCCCC3)NC(=O)[C@H](CCN)NC(=O)[C@@H](CC(C)C)NC(=O)[C@H](CCCNC(N)=O)NC(=O)[C@H](Cc3ccc(OCC(=O)O)cc3)NC(=O)[C@H](Cc3ccc(-c4ccccc4)cc3)NC(=O)[C@H](Cc3ccc(OCC(=O)O)cc3)NC2=O)c1 [Compound 2838] ({CH2CO}-RY(Carboxymethyl)D[Phe(3-Me)]Y(Carboxymethyl)[Bip]Y(Carboxymethyl)[Cit][dL][Dab][Cha]VTC[Orn][Aun]-OH; thioether N-14)	30.2
Cc1cccc(C[C@@H]2NC(=O)[C@H](CC(=O)O)NC(=O)[C@H](Cc3ccc(OCC(=O)O)cc3)NC(=O)[C@H](CN)NC(=O)CSC[C@@H](C(=O)N(C)CC(=O)N[C@@H](CCC(=O)O)C(=O)NCCCCCCCCCCC(=O)O)NC(=O)[C@H]([C@@H](C)O)NC(=O)[C@H](C(C)C)NC(=O)[C@H](CC3CCCCC3)NC(=O)[C@H](CCN)NC(=O)[C@@H](CC(C)C)NC(=O)[C@H](CCCN)NC(=O)[C@H](CCCNC(N)=O)NC(=O)[C@H](Cc3ccc(-c4ccccc4)cc3)NC(=O)[C@H](C(C)C)NC2=O)c1 [Compound 2839] ({CH2CO}-[Dap]Y(Carboxymethyl)D[Phe(3-Me)]V[Bip][Cit][Orn][dL][Dab][Cha]VTC[Sar]E[Aun]-OH; thioether N-14)	186
Cc1cccc(C[C@@H]2NC(=O)[C@H](CC(=O)O)NC(=O)[C@H](Cc3ccc(OCC(=O)O)cc3)NC(=O)[C@H](CN)NC(=O)CSC[C@@H](C(=O)N[C@@H](CCN)C(=O)NCCCCCCCCCCC(=O)O)NC(=O)[C@H]([C@@H](C)O)NC(=O)[C@H](C(C)(C)C)NC(=O)[C@H](CC3CCCCC3)NC(=O)[C@H](CCN)NC(=O)[C@@H](CC(C)C)NC(=O)[C@H](CCCN)NC(=O)[C@H](CCCNC(N)=O)NC(=O)[C@H](Cc3ccc(-c4ccccc4)cc3)NC(=O)[C@H](C(C)C)NC2=O)c1 [Compound 2840] ({CH2CO}-[Dap]Y(Carboxymethyl)D[Phe(3-Me)]V[Bip][Cit][Orn][dL][Dab][Cha][Tle]TC[Dab][Aun]-OH; thioether N-14)	18.1
Cc1cccc(C[C@@H]2NC(=O)[C@H](CC(=O)O)NC(=O)[C@H](Cc3ccc(OCC(=O)O)cc3)NC(=O)[C@H](CN)NC(=O)CSC[C@@H](C(=O)N[C@@H](CCN)C(=O)NCCCCCCCCCCC(=O)O)NC(=O)[C@H](CCCN)NC(=O)[C@H](C(C)C)NC(=O)[C@H](CC3CCCCC3)NC(=O)[C@H](CCN)NC(=O)[C@@H](CC(C)C)NC(=O)[C@H](CCCN)NC(=O)[C@H](Cc3ccc(O)cc3)NC(=O)[C@H](Cc3ccc(-c4ccccc4)cc3)NC(=O)[C@H](C(C)C)NC2=O)c1 [Compound 2841] ({CH2CO}-[Dap]Y(Carboxymethyl)D[Phe(3-Me)]V[Bip]Y[Orn][dL][Dab][Cha]V[Orn]C[Dab][Aun]-OH; thioether N-14)	12.3
Cc1cccc(C[C@@H]2NC(=O)[C@H](CC(=O)O)NC(=O)[C@H](Cc3ccc(OCC(=O)O)cc3)NC(=O)[C@H](CN)NC(=O)CSC[C@@H](C(=O)N[C@@H](CCN)C(=O)NCCCCCCCCCCC(=O)O)NC(=O)[C@H](CCCN)NC(=O)[C@H](C(C)C)NC(=O)[C@H](CC3CCCCC3)NC(=O)[C@H](CCN)NC(=O)[C@@H](CC(C)C)NC(=O)[C@H](CCCN)NC(=O)[C@H](Cc3ccc(OCC(=O)O)cc3)NC(=O)[C@H](Cc3ccc(-c4ccccc4)cc3)NC(=O)[C@H](C(C)C)NC2=O)c1 [Compound 2842] ({CH2CO}-[Dap]Y(Carboxymethyl)D[Phe(3-Me)]V[Bip]Y(Carboxymethyl)[Orn][dL][Dab][Cha]V[Orn]C[Dab][Aun]-OH; thioether N-14)	11.1
Cc1cccc(C[C@@H]2NC(=O)[C@H](CC(=O)O)NC(=O)[C@H](Cc3ccc(OCC(=O)O)cc3)NC(=O)[C@H](CN)NC(=O)CSC[C@@H](C(=O)N[C@@H](CCN)C(=O)NCCCCCCCCCCC(=O)O)NC(=O)[C@H](CCCN)NC(=O)[C@H](C(C)C)NC(=O)[C@H](CC3CCCCC3)NC(=O)[C@H](CCN)NC(=O)[C@@H](CC(C)C)NC(=O)[C@H](CCCN)NC(=O)[C@H](Cc3ccc(OCC(=O)O)cc3)NC(=O)[C@H](Cc3ccc(-c4ccccc4)cc3)NC(=O)[C@H](Cc3ccc(OCC(=O)O)cc3)NC2=O)c1 [Compound 2843] ({CH2CO}-[Dap]Y(Carboxymethyl)D[Phe(3-Me)]Y(Carboxymethyl)[Bip]Y(Carboxymethyl)[Orn][dL][Dab][Cha]V[Orn]C[Dab][Aun]-OH; thioether N-14)	9.2
